The compounds below were run on Huh7 cells containing HCV replicons with an integrated luciferase reporter gene (assay: HCV Replicon Assay (luciferase reporter)). Settings: Hepatitis C virus, Huh-7, 48 h, read-out: EC50 nM.
Format: cell-based
Experimental: Huh7 cells containing HCV replicons with an integrated luciferase reporter gene are maintained at 37° C. in 5% CO2 in Dulbecco's modified Eagle's medium (DMEM; Mediatech, Herndon, Va.) containing 10% heat-inactivated fetal bovine serum (FBS; Mediatech, Herndon, Va.), 2 mM L-glutamine (Cambrex Bioscience, Walkersville, Md.), 1% non essential amino acids (Lonza, Walkersville, Md.), 50 IU/mL penicillin (Mediatech, Herndon, Va.), […] streptomycin (Mediatech, Herndon, Va.) and 0.5 mg/mL G418 (Promega, Madison, Wis.). Cells are sub-divided 1:3 or 4 every 2-3 days.
24 h prior to the assay, Huh7 cells containing sub-genomic HCV replicons are collected, counted, and plated in Nunclon 96-well tissue culture plates (ThermoFisher, Rochester, N.Y.) at 5000 cells/well in […] standard maintenance medium (above) and incubated in the conditions above. To initiate the assay, culture medium is removed, and replaced with […] maintenance media lacking G418. Test compounds are serially diluted three-fold in dimethyl sulfoxide (DMSO) in two duplicate rows for each EC50 determination. These compound solutions are diluted ten-fold in DMEM lacking serum and G418. […] of these compound solutions in media are added to duplicate tissue culture plates. The final volume is 100 μL with a DMSO concentration of 1%. Compound concentrations are adjusted to appropriately define a dose response curve. Typical dilution series range from […] to 1.69 nM final concentrations to 1 nM to 16.9 fM final. Plates are incubated at 37° C. for approximately 48 hr.
Following incubation, media is removed from one of the two duplicate plates and replicon-reporter luciferase activity is measured using a Bright-Glo luciferase assay kit (Promega, Madison, Wis.) according to manufacturer's instructions. Semi-log plots of luciferase activity versus the logarithm of compound concentration are fit to a 4-parameter logistic function using XLfit software (IDBS Inc., Guildford, UK) to determine EC50.

Structure (SMILES)	EC50
COC(=O)N[C@H](C(=O)N1CCC[C@H]1c1ncc(-c2ccc(-c3ccc(-c4cnc([C@@H]5CCCN5C(=O)Cc5ccccc5)[nH]4)c4ccccc34)cc2)[nH]1)C(C)C [Compound 307]	< 10 nM
COC(=O)N[C@H](C(=O)N1CCC[C@H]1C(=O)Nc1ccc(NC(=O)c2ccc(NC(=O)[C@@H]3CCCN3C(=O)Cc3ccccc3)cc2)cc1)C(C)C [Compound 103]	10 to 100 nM

Same assay, conditions: Hepatitis C virus, Huh-7; Huh7 HCV replicon cells, luciferase activity, approximately 48 hr incubation; read-out: EC50

Structure (SMILES)	EC50
COC(=O)N[C@H](C(=O)N1CCC[C@H]1c1nc(-c2ccc(-c3ccc(-c4c[nH]c([C@@H]5CCCN5C(=O)[C@@H](NC(=O)OC)C(C)C)n4)c4c3OCO4)cc2)c[nH]1)C(C)C [Compound 312]	< 10 nM
COC(=O)N[C@@H](C(=O)N1CCC[C@H]1c1ncc(-c2ccc(-c3ccc(-c4cnc([C@@H]5CCCN5C(=O)[C@H](NC(=O)OC)C(C)C)[nH]4)c4ccccc34)cc2)[nH]1)C(C)C [Compound 324]	< 10 nM
COC(=O)N[C@H](C(=O)N1CCC[C@H]1c1nc(-c2ccc(-c3ccc(-c4c[nH]c([C@@H]5CCCN5C(=O)[C@@H](NC(=O)OC)C(C)C)n4)c4cccnc34)cc2)c[nH]1)C(C)C [Compound 314]	< 10 nM
COC(=O)N[C@H](C(=O)N1CCC[C@H]1c1ncc(-c2ccc(-c3ccc(-c4cnc([C@@H]5CCCN5C(=O)[C@@H](NC(=O)OC)C(C)C)[nH]4)c4c3OCCO4)cc2)[nH]1)C(C)C [Compound 309]	< 10 nM
COC(=O)N[C@H](C(=O)N1CCC[C@@]1(C)c1nc(-c2ccc(-c3ccc(-c4c[nH]c([C@]5(C)CCCN5C(=O)[C@@H](NC(=O)OC)C(C)C)n4)c4scnc34)cc2)c[nH]1)C(C)C [Compound 329]	< 10 nM

From patent US20110152246A1, “NOVEL INHIBITORS OF HEPATITIS C VIRUS REPLICATION” (InterMune, Inc., priority 2009, published 2011)
